How the values were obtained:
chloroquine-induced itch = chloroquine-induced itch (cheek injection) in wild-type mice; format: in vivo, wild-type C57BL6/J mice; settings: 30 mg/kg intraperitoneal; 100 μg chloroquine; 30 min
Protocol: (§1) Acute itch was assessed in mice that received intradermal microinjections of pruritogens or 0.9% saline into the right cheek, which had been shaved at least one day before the experiment. In two sets of experiments that addressed the contribution of GABAARs in primary and secondary pruritoceptors, pruritogens were injected in the right thigh (FIG. 17). Before injection, mice were acclimatized to a 15 cm diameter cylindrical enclosure for more than 30 min with cage bedding on the ground. Background white noise generated by a radio in the room at ambient volume was applied to prevent auditory distraction. A 30 gauge needle was inserted bevel-up and pushed 5 mm horizontally into the skin beyond the point of insertion, before injection of the pruritogen (in a total volume of 10 μl). No anesthesia was used. Correct injection was confirmed by the appearance of a slightly domed bulla upon injection. […] Videos were analyzed off-line. Scratching of the hind paw directed to the ipsilateral cheek was counted in bouts, with one scratching bout defined as an instance when the mouse lifted its paw to scratch until it returned the paw to the cage floor. In case of experiments in which the pruritogen was injected in the skin of the thigh, the time spent biting the injected skin area was counted in s/min as a measure of itch.

α3 GABAA receptors = target: T1, α3 GABAA receptors (Mus musculus, UniProt P22723+P26049); experiment: α-Me-5HT-induced itch (cheek injection) in RRHR triple point-mutated mice (α3 only); format: in vivo, mice (129X1/SvJ genetic background)
T1 construct: endogenous in cells; host or cells: living RRHR triple point-mutated mice (129X1/SvJ)
T1 sequence (P26049 29-492): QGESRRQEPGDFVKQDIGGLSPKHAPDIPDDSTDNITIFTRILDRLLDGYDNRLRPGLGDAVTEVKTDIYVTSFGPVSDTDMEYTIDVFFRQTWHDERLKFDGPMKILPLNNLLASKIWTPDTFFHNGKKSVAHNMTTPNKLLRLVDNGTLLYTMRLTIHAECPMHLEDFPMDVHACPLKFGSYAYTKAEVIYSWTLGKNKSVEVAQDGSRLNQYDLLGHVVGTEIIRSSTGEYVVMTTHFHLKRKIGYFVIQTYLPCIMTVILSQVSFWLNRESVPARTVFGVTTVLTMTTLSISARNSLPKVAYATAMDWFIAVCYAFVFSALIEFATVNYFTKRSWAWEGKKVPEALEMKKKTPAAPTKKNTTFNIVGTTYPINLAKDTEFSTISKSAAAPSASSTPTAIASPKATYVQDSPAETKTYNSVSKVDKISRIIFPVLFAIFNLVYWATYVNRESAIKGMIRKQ
T1 sequence (P63080 26-473 partner): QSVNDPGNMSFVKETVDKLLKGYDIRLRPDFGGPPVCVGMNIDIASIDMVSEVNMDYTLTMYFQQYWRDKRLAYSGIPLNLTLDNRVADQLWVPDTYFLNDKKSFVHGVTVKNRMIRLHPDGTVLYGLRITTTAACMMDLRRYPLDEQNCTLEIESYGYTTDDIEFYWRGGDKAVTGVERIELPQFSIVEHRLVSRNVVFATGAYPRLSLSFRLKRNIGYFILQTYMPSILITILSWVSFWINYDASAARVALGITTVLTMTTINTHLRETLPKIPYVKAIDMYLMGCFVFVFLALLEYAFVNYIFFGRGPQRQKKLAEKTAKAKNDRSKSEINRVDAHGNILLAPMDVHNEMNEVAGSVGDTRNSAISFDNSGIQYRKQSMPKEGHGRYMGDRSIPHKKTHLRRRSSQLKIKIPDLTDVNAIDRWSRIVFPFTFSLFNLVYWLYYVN
T1 sequence (P22723 39-474): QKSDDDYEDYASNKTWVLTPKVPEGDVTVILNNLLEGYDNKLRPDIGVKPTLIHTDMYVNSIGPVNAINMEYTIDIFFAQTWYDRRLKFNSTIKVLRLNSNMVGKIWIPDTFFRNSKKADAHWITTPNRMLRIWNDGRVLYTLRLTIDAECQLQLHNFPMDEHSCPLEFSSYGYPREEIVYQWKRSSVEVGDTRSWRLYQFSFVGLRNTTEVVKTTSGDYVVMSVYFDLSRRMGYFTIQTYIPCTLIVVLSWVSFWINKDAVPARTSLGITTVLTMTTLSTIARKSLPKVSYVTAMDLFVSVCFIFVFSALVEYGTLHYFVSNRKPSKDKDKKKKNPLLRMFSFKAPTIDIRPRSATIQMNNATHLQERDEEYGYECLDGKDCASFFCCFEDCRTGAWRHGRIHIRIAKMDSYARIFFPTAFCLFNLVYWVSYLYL
Protocol: (§2) Because mice of this particular genetic background (129SvJ) have not yet been systematically analyzed in itch experiments, the inventors first assessed the sensitivity of these mice to a battery of pruritogens injected into the right cheek.
as §1, with “distraction.” for “distraction. A 30 gauge needle was inserted bevel-up and pushed 5 mm horizontally into the skin beyond the point of insertion, before injection of the pruritogen (in a total volume of 10 μl). No anesthesia was used. Correct injection was confirmed by the appearance of a slightly domed bulla upon injection.”

α5 GABAA receptors = target: T2, α5 GABAA receptors (Mus musculus, UniProt P22723+Q8BHJ7); experiment: α-Me-5HT-induced itch (cheek injection) in RRRH triple point-mutated mice (α5 only); format: in vivo, mice (129X1/SvJ genetic background); settings: DZP 10 mg/kg per oral 1 h before 20 μg α-Me-5HT, 20 min
T2 construct: endogenous in cells; host or cells: living triple point-mutated mice with only α5 diazepam-sensitive
T2 sequence (Q8BHJ7 32-463 limits assumed): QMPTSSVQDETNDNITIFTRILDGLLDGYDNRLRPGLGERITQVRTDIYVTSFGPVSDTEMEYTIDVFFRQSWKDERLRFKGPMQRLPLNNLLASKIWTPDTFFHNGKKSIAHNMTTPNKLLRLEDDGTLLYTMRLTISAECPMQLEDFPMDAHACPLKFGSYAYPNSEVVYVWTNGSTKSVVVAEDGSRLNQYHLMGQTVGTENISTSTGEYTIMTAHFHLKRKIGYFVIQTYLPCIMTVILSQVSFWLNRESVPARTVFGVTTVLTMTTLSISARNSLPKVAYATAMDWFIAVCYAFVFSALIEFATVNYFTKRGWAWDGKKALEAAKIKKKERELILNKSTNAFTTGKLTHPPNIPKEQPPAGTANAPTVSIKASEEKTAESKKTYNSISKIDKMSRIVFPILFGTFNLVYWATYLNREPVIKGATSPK
T2 sequence (P63080 26-473 partner): as the sequence (P63080 26-473 partner) above
T2 sequence (P22723 39-474): as the sequence (P22723 39-474) above
Protocol: as §2
as §1, with “distraction.” for “distraction. A 30 gauge needle was inserted bevel-up and pushed 5 mm horizontally into the skin beyond the point of insertion, before injection of the pruritogen (in a total volume of 10 μl). No anesthesia was used. Correct injection was confirmed by the appearance of a slightly domed bulla upon injection.”

α2 GABAA receptors = target: T3, α2 GABAA receptors (Mus musculus, UniProt P22723+P26048); experiment: α-Me-5HT-induced itch (cheek injection) in RHRR triple point-mutated mice (α2 only); format: in vivo, mice (129X1/SvJ genetic background)
T3 construct: endogenous in cells; host or cells: living RHRR triple point-mutated mice (129X1/SvJ)
T3 sequence (P26048 29-451): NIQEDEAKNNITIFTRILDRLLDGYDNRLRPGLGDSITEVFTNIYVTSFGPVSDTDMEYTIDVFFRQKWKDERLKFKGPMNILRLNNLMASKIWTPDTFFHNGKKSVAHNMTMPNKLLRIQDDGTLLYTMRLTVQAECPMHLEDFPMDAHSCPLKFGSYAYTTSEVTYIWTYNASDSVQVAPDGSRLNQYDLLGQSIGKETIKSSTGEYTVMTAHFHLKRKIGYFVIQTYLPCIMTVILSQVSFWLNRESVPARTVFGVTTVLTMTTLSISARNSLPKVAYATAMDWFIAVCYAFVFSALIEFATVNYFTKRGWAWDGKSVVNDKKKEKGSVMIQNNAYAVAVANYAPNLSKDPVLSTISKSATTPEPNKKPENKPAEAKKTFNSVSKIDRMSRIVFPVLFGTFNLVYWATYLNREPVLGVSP
T3 sequence (P63080 26-473 partner): as the sequence (P63080 26-473 partner) above
T3 sequence (P22723 39-474): as the sequence (P22723 39-474) above
Protocol: as §2
as §1, with “distraction.” for “distraction. A 30 gauge needle was inserted bevel-up and pushed 5 mm horizontally into the skin beyond the point of insertion, before injection of the pruritogen (in a total volume of 10 μl). No anesthesia was used. Correct injection was confirmed by the appearance of a slightly domed bulla upon injection.”

[1] = system: α2, α3 or α5 GABAA receptors; experiment: oxazolone contact dermatitis model of chronic itch in GABAAR triple point-mutated mice; format: in vivo, mice (129X1/SvJ genetic background); settings: 10 mg/kg i.p. on day 18; recorded 4 hours after injection
[2] = system: brain membranes prepared from α1,2,3,5 H→R point mutated mice; format: binding, mice (RRRR); settings: 4 nM [3H]Ro 15-4513; increasing concentrations; n=4
Protocol: The supernatant was centrifuged for 20 min at 30,000 g and the resulting crude membrane pellet was washed once with buffer. […] Non-specific [^3H]Ro 15-4513 binding was assessed by addition of 10 μM flumazenil to the reaction. Incubation was stopped by rapid vacuum filtration using a semiautomatic cell harvester (Skatron Instruments) and washed filters were subjected to liquid scintillation counting.

α-Me-5HT-induced itch = experiment: α-methyl 5-HT-induced itch (cheek injection) in wild-type mice; format: in vivo, wild-type mice (129X1/SvJ)
α3 GABAA receptor = target: T4, α3 GABAA receptor (Mus musculus, UniProt P22723+P26049, H154R); experiment: α-Me-5HT-induced itch in HHRH mice (α3-GABAAR DZP-insensitive); format: in vivo; settings: 10 mg/kg per oral 1 h before 20 μg α-Me-5HT; 20 min
T4 construct: endogenous in cells; host or cells: living HHRH single point-mutated mice (knock-in)
T4 sequence (P26049 29-492 H154R): as the sequence (P26049 29-492) above, with H126R counted along it
T4 sequence (P63080 26-473 partner): as the sequence (P63080 26-473 partner) above
T4 sequence (P22723 39-474): as the sequence (P22723 39-474) above
Protocol: Wild-type and GABAAR single point mutated mice in which only α3 is rendered DZP-insensitive (HHRH mice) received per oral injection of 10 mg/kg TP003 or vehicle. One hour after injection, the mice received a 20 μg α-Me-5HT cheek injection to elicit itching. Over the course of twenty minutes scratching bouts directed at the ipsilateral cheek were recorded and TP003 injected mice compared with vehicle injected control mice (FIGS. 8A & 8B).
as §1, with “ground.” for “ground. Background white noise generated by a radio in the room at ambient volume was applied to prevent auditory distraction. A 30 gauge needle was inserted bevel-up and pushed 5 mm horizontally into the skin beyond the point of insertion, before injection of the pruritogen (in a total volume of 10 μl). No anesthesia was used. Correct injection was confirmed by the appearance of a slightly domed bulla upon injection.”

[3] = system: contact dermatitis-induced chronic itch; experiment: oxazolone contact dermatitis model of chronic itch in wild-type mice; format: in vivo, wild-type C57BL6/J mice; settings: 10 mg/kg i.p. on day 18; 15 to 210 min after injection
Protocol: Thus, TPA023B is, in accordance with the other findings of the inventors, suitable as an antipruritic substance.
This was independent of the treatment they received from day 7 to day 27.
The inventors sought to confirm the antipruritic efficacy of α2 and α3 GABAA receptor agonists against contact dermatitis-induced chronic itch. To this end, N-desmethyl clobazam, a benzodiazepine with improved activity at α2 versus α1 was assessed for its antipruritic effects (Jensen et al. PLoS One. 2014 Feb. 12; 9(2):e88456.).
Chronic itch was investigated in the contact dermatitis model (Kido-Nakahara, M., et al. J Clin Invest, 2014, 124, 2683-2695). Mice were treated once with 10% oxazolone in acetone/olive oil (4:1 v/v) on the shaved nape of the neck (100 μl) on day 0. After a resting period of 7 days, mice were treated with 1% oxazolone in acetone/olive oil (4:1 v/v) on the nape of the neck (100 μl) every other day for 10 days. On the day of the experiment, mice were injected with drug or vehicle i.p. under short and light isoflurane anesthesia. […]

In the case of `CC(=O)[C@H]1CC[C@H]2[C@@H]3CC[C@H]4C[C@](C)(O)CC[C@]4(C)[C@H]3CC[C@]12C` [ganaxolone], the “number of scratching bouts vs vehicle” value (chloroquine-induced itch) is reported as “significant reduction in number scratching bouts”.

With `CN1C(=O)CN=C(c2ccccc2)c2cc(Cl)ccc21` [DZP, Diazepam] the “dose-dependence of antipruritic effects” value (α3 GABAA receptors; RRHR mice (FIG. 2C), oral DZP 1 h before 20 μg α-Me-5HT) was “dose-dependent antipruritic effects”, the “scratching bouts directed at the ipsilateral cheek vs vehicle” value (α3 GABAA receptors; RRHR mice (α3 only), DZP 10 mg/kg per oral 1 h before 20 μg α-Me-5HT, 20 min) was “significant reduction of scratching bouts” and the “scratching bouts directed at the ipsilateral cheek vs vehicle” value (α5 GABAA receptors) was “no significant reduction in scratching bouts”. The “scratching bouts directed at the ipsilateral cheek vs vehicle” value (α2 GABAA receptors; RHRR mice (α2 only), DZP 10 mg/kg per oral 1 h before 20 μg α-Me-5HT, 20 min) was “significant reduction of scratching bouts”, the “dose-response of scratching bouts” value (α2 GABAA receptors; RHRR mice, 0.1, 0.3, 1, 3, 10 and 30 mg/kg per oral 1 h before 20 μg α-Me-5HT, 30 min) was “dose-dependent reduction of scratching bouts” and the “number of scratching bouts directed at the nape of the neck vs vehicle” value [1] was “significant reduction in the number of scratching bouts”.

In the case of `CC(C)(C)OC(=O)c1ncn2c1[C@@H]1CCCN1C(=O)c1c(Br)cccc1-2` [bretazenil], the “displacement of [3H]Ro 15-4513 binding” value [2] is reported as “dose-dependently inhibited”.

With `CC(N)Cc1c[nH]c2ccc(O)cc12` (stereo not drawn) [α-methyl 5-HT, α-methyl-5-hydroxy-tryptamine] the “scratching behavior directed to the injected site” value (α-Me-5HT-induced itch; different doses injected into the right cheek, wild-type 129X1/SvJ, 30 min) was “dose-dependent robust scratching behavior”.

With `CC(C)(O)c1ccn2c(-c3ccc(F)c(-c4ccc(F)cc4C#N)c3)cnc2c1F` [TP003, 4,2′-difluoro-5′-[8-fluoro-7-(1-hydroxy-1-methylethyl)imidazo[1,2-a]pyridin-3-yl]biphenyl-2-carbonitrile] the “antipruritic effect in HHRH mice” value (α3 GABAA receptor) was “absent” and the “scratching bouts directed at the ipsilateral cheek vs vehicle” value (α-Me-5HT-induced itch; wild-type 129X1/SvJ mice, 10 mg/kg per oral 1 h before 20 μg α-Me-5HT, 20 min) was “significant reduction of scratching bouts”.

In the case of `O=C1CC(=O)N(c2ccccc2)c2cc(Cl)ccc2N1` [NDMC, N-desmethyl clobazam], the “scratching bouts directed at the nape of the neck vs vehicle” value [3] is reported as “significant reduction in scratching bouts”.

From patent publication US11529359B2, “Use of GABAA receptor modulators for treatment of itch” (UNIVERSITÄT ZÜRICH, priority 2016, dated 2022)
